{"source": "PubChem BioAssay (NCI)", "note": "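A five-concentration, 48-hour dose response in 96-well plates underlies each endpoint, interpolated linearly between surrounding concentrations. The concentration for full growth arrest is given as TGI.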"}
{"system": "SK-MEL-2 melanoma", "assay": "NCI tumour cell line growth inhibition, 48 h", "units": {"TGI": "µM"}}
{"smiles": "CCN(C(=N)C#N)c1ccccc1", "TGI": "> 100"}
{"smiles": "O=C1[C@@H]2C(c3cccc([N+](=O)[O-])c3)=NO[C@@H]2C(=O)N1c1ccc(Cc2ccc(N3C(=O)[C@H]4C(c5cccc([N+](=O)[O-])c5)=NO[C@H]4C3=O)cc2)cc1", "TGI": "> 100"}
{"smiles": "O=C(NO)C(=O)Nc1cc(Cl)ccc1Cl", "TGI": "> 100"}
{"system": "SK-MEL-28 melanoma", "assay": "NCI tumour cell line growth inhibition, 48 h", "units": {"TGI": "µM"}}
{"smiles": "COC(=O)C1Cc2c([nH]c3ccccc23)C(C2CCCCC2)N1", "note": "(stereo not drawn)", "TGI": "> 100"}
{"smiles": "CCN(C(=N)C#N)c1ccccc1", "TGI": "> 100"}
{"smiles": "O=C1[C@@H]2C(c3cccc([N+](=O)[O-])c3)=NO[C@@H]2C(=O)N1c1ccc(Cc2ccc(N3C(=O)[C@H]4C(c5cccc([N+](=O)[O-])c5)=NO[C@H]4C3=O)cc2)cc1", "TGI": "> 100"}
{"smiles": "O=C(NO)C(=O)Nc1cc(Cl)ccc1Cl", "TGI": "> 100"}
{"system": "SK-MEL-5 melanoma", "assay": "NCI tumour cell line growth inhibition, 48 h", "units": {"TGI": "µM"}}
{"smiles": "COC(=O)C1Cc2c([nH]c3ccccc23)C(C2CCCCC2)N1", "note": "(stereo not drawn)", "TGI": "> 100"}
{"smiles": "CCN(C(=N)C#N)c1ccccc1", "TGI": "> 100"}
{"smiles": "O=C(NO)C(=O)Nc1cc(Cl)ccc1Cl", "TGI": "> 100"}
{"system": "SK-OV-3 ovarian", "assay": "NCI tumour cell line growth inhibition, 48 h", "units": {"TGI": "µM"}}
{"smiles": "COC(=O)C1Cc2c([nH]c3ccccc23)C(C2CCCCC2)N1", "note": "(stereo not drawn)", "TGI": "> 100"}
{"smiles": "CCN(C(=N)C#N)c1ccccc1", "TGI": "> 100"}
{"smiles": "O=C(NO)C(=O)Nc1cc(Cl)ccc1Cl", "TGI": "> 100"}
{"system": "SN12C renal", "assay": "NCI tumour cell line growth inhibition, 48 h", "units": {"TGI": "µM"}}
{"smiles": "COC(=O)C1Cc2c([nH]c3ccccc23)C(C2CCCCC2)N1", "note": "(stereo not drawn)", "TGI": "> 100"}
{"smiles": "CCN(C(=N)C#N)c1ccccc1", "TGI": "> 100"}
{"smiles": "O=C1[C@@H]2C(c3cccc([N+](=O)[O-])c3)=NO[C@@H]2C(=O)N1c1ccc(Cc2ccc(N3C(=O)[C@H]4C(c5cccc([N+](=O)[O-])c5)=NO[C@H]4C3=O)cc2)cc1", "TGI": "> 100"}
{"smiles": "O=C(NO)C(=O)Nc1cc(Cl)ccc1Cl", "TGI": "> 100"}
{"system": "SNB-19 CNS", "assay": "NCI tumour cell line growth inhibition, 48 h", "units": {"TGI": "µM"}}
{"smiles": "COC(=O)C1Cc2c([nH]c3ccccc23)C(C2CCCCC2)N1", "note": "(stereo not drawn)", "TGI": "> 100"}
{"smiles": "CCN(C(=N)C#N)c1ccccc1", "TGI": "> 100"}
{"smiles": "O=C(NO)C(=O)Nc1cc(Cl)ccc1Cl", "TGI": "> 100"}
{"system": "SNB-75 CNS", "assay": "NCI tumour cell line growth inhibition, 48 h", "units": {"TGI": "µM"}}
{"smiles": "COC(=O)C1Cc2c([nH]c3ccccc23)C(C2CCCCC2)N1", "note": "(stereo not drawn)", "TGI": "> 100"}
{"smiles": "CCN(C(=N)C#N)c1ccccc1", "TGI": "> 100"}
{"smiles": "O=C1[C@@H]2C(c3cccc([N+](=O)[O-])c3)=NO[C@@H]2C(=O)N1c1ccc(Cc2ccc(N3C(=O)[C@H]4C(c5cccc([N+](=O)[O-])c5)=NO[C@H]4C3=O)cc2)cc1", "TGI": "> 100"}
{"smiles": "O=C(NO)C(=O)Nc1cc(Cl)ccc1Cl", "TGI": "> 100"}
{"system": "SNB-78 CNS", "assay": "NCI tumour cell line growth inhibition, 48 h", "units": {"TGI": "µM"}}
{"smiles": "O=C1[C@@H]2C(c3cccc([N+](=O)[O-])c3)=NO[C@@H]2C(=O)N1c1ccc(Cc2ccc(N3C(=O)[C@H]4C(c5cccc([N+](=O)[O-])c5)=NO[C@H]4C3=O)cc2)cc1", "TGI": "> 100"}
{"smiles": "O=C(NO)C(=O)Nc1cc(Cl)ccc1Cl", "TGI": "> 100"}
{"system": "SR leukemia", "assay": "NCI tumour cell line growth inhibition, 48 h", "units": {"TGI": "µM"}}
{"smiles": "COC(=O)C1Cc2c([nH]c3ccccc23)C(C2CCCCC2)N1", "note": "(stereo not drawn)", "TGI": "> 100"}
{"smiles": "CCN(C(=N)C#N)c1ccccc1", "TGI": "> 100"}
{"smiles": "O=C1[C@@H]2C(c3cccc([N+](=O)[O-])c3)=NO[C@@H]2C(=O)N1c1ccc(Cc2ccc(N3C(=O)[C@H]4C(c5cccc([N+](=O)[O-])c5)=NO[C@H]4C3=O)cc2)cc1", "TGI": "> 100"}
{"smiles": "O=C(NO)C(=O)Nc1cc(Cl)ccc1Cl", "TGI": "> 100"}
{"system": "SW-620 colon", "assay": "NCI tumour cell line growth inhibition, 48 h", "units": {"TGI": "µM"}}
{"smiles": "COC(=O)C1Cc2c([nH]c3ccccc23)C(C2CCCCC2)N1", "note": "(stereo not drawn)", "TGI": "> 100"}
{"smiles": "CCN(C(=N)C#N)c1ccccc1", "TGI": "> 49.8"}
{"smiles": "O=C1[C@@H]2C(c3cccc([N+](=O)[O-])c3)=NO[C@@H]2C(=O)N1c1ccc(Cc2ccc(N3C(=O)[C@H]4C(c5cccc([N+](=O)[O-])c5)=NO[C@H]4C3=O)cc2)cc1", "TGI": "> 100"}
{"smiles": "O=C(NO)C(=O)Nc1cc(Cl)ccc1Cl", "TGI": "> 100"}
{"system": "TK-10 renal", "assay": "NCI tumour cell line growth inhibition, 48 h", "units": {"TGI": "µM"}}
{"smiles": "COC(=O)C1Cc2c([nH]c3ccccc23)C(C2CCCCC2)N1", "note": "(stereo not drawn)", "TGI": "> 100"}
{"smiles": "CCN(C(=N)C#N)c1ccccc1", "TGI": "> 100"}
{"smiles": "O=C1[C@@H]2C(c3cccc([N+](=O)[O-])c3)=NO[C@@H]2C(=O)N1c1ccc(Cc2ccc(N3C(=O)[C@H]4C(c5cccc([N+](=O)[O-])c5)=NO[C@H]4C3=O)cc2)cc1", "TGI": "> 100"}
{"smiles": "O=C(NO)C(=O)Nc1cc(Cl)ccc1Cl", "TGI": "> 100"}
{"system": "U251 CNS", "assay": "NCI tumour cell line growth inhibition, 48 h", "units": {"TGI": "µM"}}
{"smiles": "COC(=O)C1Cc2c([nH]c3ccccc23)C(C2CCCCC2)N1", "note": "(stereo not drawn)", "TGI": "> 100"}
{"smiles": "CCN(C(=N)C#N)c1ccccc1", "TGI": "> 100"}
{"smiles": "O=C(NO)C(=O)Nc1cc(Cl)ccc1Cl", "TGI": "> 100"}
{"system": "UACC-257 melanoma", "assay": "NCI tumour cell line growth inhibition, 48 h", "units": {"TGI": "µM"}}
{"smiles": "COC(=O)C1Cc2c([nH]c3ccccc23)C(C2CCCCC2)N1", "note": "(stereo not drawn)", "TGI": "> 100"}
{"smiles": "CCN(C(=N)C#N)c1ccccc1", "TGI": "> 100"}
{"smiles": "O=C1[C@@H]2C(c3cccc([N+](=O)[O-])c3)=NO[C@@H]2C(=O)N1c1ccc(Cc2ccc(N3C(=O)[C@H]4C(c5cccc([N+](=O)[O-])c5)=NO[C@H]4C3=O)cc2)cc1", "TGI": "> 100"}
{"smiles": "O=C(NO)C(=O)Nc1cc(Cl)ccc1Cl", "TGI": "> 100"}
{"system": "UACC-62 melanoma", "assay": "NCI tumour cell line growth inhibition, 48 h", "units": {"TGI": "µM"}}
{"smiles": "COC(=O)C1Cc2c([nH]c3ccccc23)C(C2CCCCC2)N1", "note": "(stereo not drawn)", "TGI": "> 100"}
{"smiles": "CCN(C(=N)C#N)c1ccccc1", "TGI": "> 100"}
{"smiles": "O=C1[C@@H]2C(c3cccc([N+](=O)[O-])c3)=NO[C@@H]2C(=O)N1c1ccc(Cc2ccc(N3C(=O)[C@H]4C(c5cccc([N+](=O)[O-])c5)=NO[C@H]4C3=O)cc2)cc1", "TGI": "> 100"}
{"smiles": "O=C(NO)C(=O)Nc1cc(Cl)ccc1Cl", "TGI": "> 100"}
{"system": "UO-31 renal", "assay": "NCI tumour cell line growth inhibition, 48 h", "units": {"TGI": "µM"}}
{"smiles": "COC(=O)C1Cc2c([nH]c3ccccc23)C(C2CCCCC2)N1", "note": "(stereo not drawn)", "TGI": "> 100"}
{"smiles": "CCN(C(=N)C#N)c1ccccc1", "TGI": "> 100"}
{"smiles": "O=C1[C@@H]2C(c3cccc([N+](=O)[O-])c3)=NO[C@@H]2C(=O)N1c1ccc(Cc2ccc(N3C(=O)[C@H]4C(c5cccc([N+](=O)[O-])c5)=NO[C@H]4C3=O)cc2)cc1", "TGI": "> 100"}
{"smiles": "O=C(NO)C(=O)Nc1cc(Cl)ccc1Cl", "TGI": 51}
